Laboratory results taken from US10898436B2, “Nanoparticle compositions for generation of regulatory T cells and treatment of autoimmune diseases and other chronic inflammatory conditions” (Topas Therapeutics GmbH, priority 2011, dated 2021).
No end group written: not given here.

Experiments:
[1] = test system: Splenic CD4+Foxp3− T cells from tg4×Foxp3gfp.KI mice; test: Treg conversion by LSEC in vitro with nanoparticle-conjugated or free MBP peptide; assay type: cell-based; details: co-culture with LSEC, TGFβ 2 ng/ml, MBP peptide 5 ng/ml or equivalent dose, four days, flow cytometry (FIG. 11); in % (unit assumed)
Method: FIG. 11: Efficient Treg conversion by LSEC in vitro using nanoparticle-conjugated MBP peptide or free MBP peptide. Splenic CD4+Foxp3− T cells from tg4×Foxp3gfp.KI mice were co-cultured with LSEC in the presence of TGFβ (2 ng/ml) and free MBP peptide (5 ng/ml) or an equivalent dose of MBP peptide coupled to nanoparticles (MBP-NP) for four days. Foxp3 induction in CD4+ T cells was then analyzed by flow cytometry. For statistical analysis, Mann-Whitney test was performed (free MBP: 32.16±1.075; MBP-NP: 29.63±1.558; P=0.2857). n.s.=not significant.
(§1) To further investigate the cellular tropism of administered peptide-nanoparticle conjugates, conventional as well as intravital confocal fluorescence microscopy of the liver was performed, using nanoparticles with a fluorescent quantum dot core (44). Prior to administration of fluorescent MBP peptide-nanoparticle conjugates, recipient mice were injected with FITC-dextran that is rapidly absorbed by LSEC. […] To confirm that delivered peptide can be presented to T cells, Treg conversion in vitro by LSEC in the presence of free MBP peptide or of MBP peptide bound to nanoparticles (MBP-NP) was studied.

[2] = test system: experimental autoimmune encephalomyelitis (EAE) in B10.PL mice; test: Treatment of EAE with autoantigen-loaded nanoparticles (Example 4); assay type: in vivo; details: injected into B10.PL mice one day after EAE induction by Ac1-9 MBP peptide (FIG. 5)
Method: For covalent conjugation of neuroantigen peptide (encephalitogenic Ac1-9 peptide derived from the amino acid sequence of myelin basic protein), iron oxide-core nanoparticles were synthesized as described in example 3 and adjusted to a concentration of 6 μmol/L in 50 mM SBB-buffer (pH=9). An equal amount of 1-Ethyl-3-(3-dimethylaminopropyl)carbodiimide (c=[…]), dissolved in a 50 mM SBB-buffer (pH=9), was added. After 5 minutes, a 1000-fold excess of the neuroantigen peptide was added and the solution was incubated under rotation for 2h at room temperature and then overnight at 4° C. On the next day, the solution was filtered under centrifugal force in a filter device (100 kDa, 2500 g, 4° C.) and the remnant resuspended in PBS. This procedure was repeated 20 times to remove all excess peptide. The obtained peptide-particle conjugates were dissolved in PBS and subjected to size-exclusion-chromatography to assure for the absence of free peptide. Then, the iron content was measured to determine the concentration of the peptide-particle suspension.
Results: The thus obtained peptide-loaded nanoparticles or, as control, unconjugated peptide-free nanoparticles were then injected into B10.PL mice (n=6), one day after induction of experimental autoimmune encephalomyelitis (EAE) by immunization to Ac1-9 myelin basic protein peptide (25).

[3] = test system: MBP-induced EAE in B10.PL mice; test: MBP-induced EAE in B10.PL mice with Treg depletion by PC61 antibody; assay type: in vivo
Method: (§2) FIG. 8: Nanoparticle-based delivery of neuroantigen peptides to LSEC prevents EAE induction. EAE was induced in B10.PL wildtype mice (A, E) or tg4 mice (B) by immunization to MBP. In C57BL/6 wildtype mice (C) or hCD2-ΔkTβRII mice (D), EAE was induced by immunization to MOG. One day after EAE induction, mice were injected once intravenously with PBS (A-E) or neuroantigen peptide-loaded nanoparticles (MBP-NP (A, B, E) or MOG-NP (C, D,). As control, mice received equivalent amounts of unloaded NP (A, C) or unconjugated MBP peptide (B,). E, Twice per week, mice treated with MBP-NP were intraperitoneally injected with Treg-depleting PC61 antibody (MBP-NP/Treg-depleted) or isotype-matched control antibody (MBP-NP). Shown are mean EAE scores±s.e.m. (n=5-7).
FIG. 13: Depletion of CD25+Foxp3+CD4+ Treg in vivo by repeated PC61 antibody-administration. B10.PL mice were immunized to MBP peptide and treated on the next day with PBS (n=7) or MBP peptide-coupled nanoparticles (MBP-NP). Mice, which received MBP-NP, were then either treated twice per week with Treg-depleting PC61 antibody (n=5) or non-depleting isotype-matched control antibody (n=6). Mice were sacrificed on day 29 post immunization and spleens were analyzed for Treg depletion efficiency by flow cytometry. Results are depicted as mean % of CD25+Foxp3+of CD4+ T cells±s.e.m. (PBS 17.16±0.3422; MBP-NP+isotype 15.08±0.8594; MBP-NP+PC61 3.160±0.4643; P<0.001). For comparison of multiple groups, one-way ANOVA and Tukey's post test were performed.
As the inventors have shown above that tolerance induction by LSEC required TGFβ signaling to T cells, they reasoned that nanoparticle-based targeting of autoantigen peptides to LSEC should be ineffective in mice with TGFβ-insensitive T cells. […] Thus, it can be concluded that also in vivo, the efficacy of nanoparticle-mediated tolerance induction is dependent on TGFβ signaling to T cells. […]

[4] = Organ uptake by dynamic magnetic resonance imaging; assay type: in vivo, mice; details: FIG. 7C
Method: (§3) FIG. 7: Targeted delivery of MBP peptides to LSEC with nanoparticles. A) Plasma clearance rates of MBP peptide coupled to ^59Fe-NP (MBP-^59Fe-NP) and ^14C-MBP peptide coupled to unlabeled NP(^14C-MBP-NP). B) Organ distribution of MBP-^59Fe-NP and ^14C-MBP-NP 60 min after intravenous injection. Mean values±s.e.m. are shown (n=4). C) Representative coronal and transversal MR images of mice pre and post injection of unloaded NP or MBP-NP. D) Intravital confocal microscopy of the liver showing uptake of MBP-NP or unloaded NP by LSEC. Nuclei were also stained. right panel: LSEC (FITC-dextran), left panel: quantum dot-labeled NP; scale bar: 20 μm. E) Electron microscopy of liver, 60 min after intravenous injection of MBP-NP or unloaded NP.
(§4) To develop a method for selective delivery of autoantigen to LSEC in vivo, the inventors made use of nanoparticles (NP) that are rapidly cleared from the circulation through uptake by liver cells. Specifically, the inventors took advantage of a polymer-coated nanoparticle (43), which they observed to accumulate selectively in liver sinusoidal endothelium (data not shown). […] Low amounts of radioactivity could be detected in spleen and kidney, whereas uptake into other organs was negligible. […]

LSEC = test: Cellular tropism of peptide-nanoparticle conjugates in liver (intravital confocal microscopy, electron microscopy); assay type: in vivo, mice
Method: as §3, §1

[5] = test system: MBP-induced EAE in B10.PL mice; test: Prevention of MBP-induced EAE in B10.PL mice; assay type: in vivo; details: single intravenous injection one day after EAE-induction, B10.PL mice (FIG. 8A)
Method: as §2
(§5) The proposed immunosuppressive effect of MBP-nanoparticles in vivo was first tested in MBP-induced EAE in B10.PL mice (FIG. 8A). […] To confirm the efficacy of the inventive treatment approach in another independent disease model, the effect of nanoparticles loaded with myelin oligodendrocyte glycoprotein (MOG) peptides on the development of MOG-induced EAE was tested in C57BL/6 mice.

[6] = Zeta potential measurement (Malvern Zetasizer Nano-ZS); assay type: physicochemical; details: 20° C.
Method: FIG. 12: Characteristics of NP and MBP-NP. A) The Zeta potentials of NP and MBP-NP were measured at 20° C. using a Malvern Zetasizer Nano-ZS instrument. […] No differences in size could be detected by B) size exclusion chromatography (MBP-NP: left line; NP: right line) or C) by transmission electron microscopy. For electron microscopy, samples were stained with 1% sodium silicotungstate, pH 7, so that the organic shell appears light and the iron oxide core dark.

EAE in tg4 mice = test: Prevention of MBP-induced EAE in tg4 mice; assay type: in vivo; details: single injection one day after EAE-induction, tg4 mice (FIG. 8B)
Method: as §2, §5

[7] = design: species or system mice; details: mouse, in vivo, iv
Method: as §3, §4

CD4+CD25− T cells = test: Generation of Treg cells from CD4+CD25− non-regulatory T cells by antigen presenting cells; assay type: cell-based, mouse
Method: Mouse liver non-parenchymal cells were isolated applying a protocol modified from (28). Briefly, mouse livers were perfused with 0.05% collagenase IV (Sigma; Taufkirchen, Germany) in Gey's balanced salt solution, mechanically dissected and further digested in 0.05% collagenase IV in Gey's balanced salt solution for 25 minutes at 37° C. at constant rotation (240 rpm). Hepatocytes and debris were sedimented twice at 40 g and non-parenchymal cells were recovered by centrifugation over a 17% Optiprep (Sigma) gradient at 400 g.
Liver sinusoidal endothelial cells (LSEC) were purified from the non-parenchymal cells as described (29) by magnetic sorting with the ME-9F1 antibody (Miltenyi Biotech, Bergisch-Gladbach, Germany). LSEC were seeded on collagen-coated culture plates (Serva, Heidelberg, Germany). After overnight culture in Iscove's modified Dulbecco's medium supplemented with 5% FCS, non-adherent cells were removed by medium change. Accordingly, Kupffer cells were purified from the non-parenchymal cells by magnetic sorting with biotinylated F4/80 antibody (eBioscience, Frankfurt, Germany) and anti-biotin microbeads (Miltenyi).
Alternatively, hepatocytes were isolated from mouse livers as described (30); and dendritic cells were isolated from mouse spleen by magnetic cell separation for CD11c as described (30).
10^5 LSEC, 10^5 Kupffer cells, or 5×10^3 hepatocytes were seeded into 96-well plates, and used on the following day for stimulation of CD4+CD25− T cells. Alternatively, 5×10^4 dendritic cells, were seeded into 96-well plates, and used on the same day for stimulation of CD4+CD25− T cells. These CD4+CD25− non-regulatory T cells were isolated from mouse spleens by magnetic cell separation, and 5×10^5 purified lymphocytes per well were then stimulated on the indicated antigen presenting cells in serum-free medium (Pan Biotech, Aidenbach, Germany) with solute antibody to CD3 (BD Bioscience, Heidelberg, Germany). After four days of culture, the T cells were harvested and analysed by flow cytometry for the percentage of CD4+CD25+FOXP3+ Treg cells. […]

MBP-NP: Ac1-9 myelin basic protein peptide covalently conjugated by carbodiimide to polymer-coated iron oxide-core nanoparticles (Ac-MGNHSGKRE; also: carbodiimide-conjugated to polymer-coated iron oxide nanoparticles; UniProt P04370 1-9, looked up, fragment)
Foxp3 induction in CD4+ T cells [1]: 29.63±1.558
protection from clinical EAE [2]: complete protection from clinical EAE
protection from EAE ([3]; Treg-depleted mice (repeated PC61 antibody) (FIG. 8E)): could not prevent the development of disease
protection from EAE ([3]; control mice (isotype-matched control antibody) (FIG. 8E)): induced protection from EAE
mean % of CD25+Foxp3+of CD4+ T cells±s.e.m. ([3]; spleens, day 29 post immunization, flow cytometry, B10.PL mice (FIG. 13)): 15.08±0.8594%
organ uptake by dynamic magnetic resonance imaging [4]: only hepatic targeting
uptake by LSEC by transmission electron microscopy (LSEC; 60 min after intravenous injection (FIG. 7E)): sizeable internalization
localisation in liver by intravital confocal fluorescence microscopy (LSEC; quantum dot core, intravenous injection, FITC-dextran stained LSEC (FIG. 7D)): co-localized with FITC-dextran stained LSEC
clinical EAE [5]: lasting and almost complete protection from clinical EAE
averaged Zeta-potential [6]: −61.6 mV
clinical EAE (EAE in tg4 mice): protected from disease

MBP-^59Fe-NP: 59Fe-radiolabeled nanoparticles conjugated to non-labeled MBP peptide (MGNHSGKRE; also: conjugated to 59Fe-labelled nanoparticles; UniProt P04370 1-9, looked up, fragment)
plasma clearance kinetics of radiolabel [7]: cleared with similar kinetics

TGFβ: exogenous cytokine added to some stimulation cultures
percentage of CD4+CD25+FOXP3+ Treg cells among stimulated T cells (CD4+CD25− T cells; LSEC-stimulated T cells, in the presence of TGFβ, four days of culture): 38%
percentage of CD4+CD25+FOXP3+ Treg cells among stimulated T cells (CD4+CD25− T cells; dendritic cell-stimulated T cells, in the presence of exogenous TGFβ, four days of culture): 7.5%
percentage of CD4+CD25+FOXP3+ Treg cells among stimulated T cells (CD4+CD25− T cells; liver cell-stimulated T cells (LSEC, Kupffer cells and hepatocytes), in the presence of exogenous TGFβ): at least 20%

^14C-MBP-NP: 14C-radiolabeled MBP peptide coupled to unlabeled NP (MGNHSGKRE; also: 14C label, nanoparticle conjugate; UniProt P04370 1-9, looked up, fragment)
plasma clearance kinetics of radiolabel [7]: cleared with similar kinetics

free MBP peptide: encephalitogenic Ac1-9 peptide derived from the amino acid sequence of myelin basic protein, not coupled (Ac-MGNHSGKRE; UniProt P04370 1-9, looked up, fragment) [reference compound]
Foxp3 induction in CD4+ T cells [1]: 32.16±1.075
clinical EAE (EAE in tg4 mice): developed severe EAE
